Source: US10745383B2, “1,3,5-triazine derivative and method of using same” (CHIA TAI TIANQING PHARMACEUTICAL GROUP CO., LTD., priority 2015, dated 2020)
Values belong to the compound of their own block, whether it stands above or below them.

How the values were obtained:
[1] = Pharmacokinetic parameters in rats after a single intragastric dose; type: in vivo; settings: for AUC(0-inf) / Cmax / Tmax / half-life: rat, po, male rats, intragastric, single dose 5 mg/kg, plasma
Method: Healthy male adult rats (7-9 weeks old) were used in this study. Each group of animals (3 male rats) was intragastrically administered once at a single dose of 5 mg/kg. The animals in the intragastric administration group were fasted overnight before this study. The fasting time period was from 10 hours before administration to 4 hours after administration.
Blood samples were taken at 0.25, 0.5, 1, 2, 4, 6, 8 and 24 h after administration. The animals were anesthetized with isoflurane using an animal anesthesia machine, and then 0.3 mL whole blood samples were taken from the fundus venous plexus. The blood samples were placed in heparin anticoagulant tubes, and centrifuged for 5 min at 4° C. and 4000 rpm. The resulting plasmas were transferred to centrifuge tubes, and stored at −80° C. until analysis.
Verified LC-MS/MS method was used to analyze the plasma samples. Plasma concentration-time data of animals were analyzed using WinNonlin (Professional Edition, version 6.3; Pharsight Company) software. The non-compartmental model was introduced for concentration analysis. The pharmacokinetic parameters of the compounds were calculated.

IDH2 (R172K, 40-end) = IDH2 (R172K, 40-end) (Homo sapiens (Human), UniProt P48735, R172K); assay: IDH2 inhibitory activity determined by decrease of NADPH (diaphorase/resazurin fluorescence); type: biochemical; settings: 120 min pre-incubation with enzyme and NADPH, 120 min reaction with α-KG
IDH2 (R172K, 40-end), sequence (P48735 40-452 R172K): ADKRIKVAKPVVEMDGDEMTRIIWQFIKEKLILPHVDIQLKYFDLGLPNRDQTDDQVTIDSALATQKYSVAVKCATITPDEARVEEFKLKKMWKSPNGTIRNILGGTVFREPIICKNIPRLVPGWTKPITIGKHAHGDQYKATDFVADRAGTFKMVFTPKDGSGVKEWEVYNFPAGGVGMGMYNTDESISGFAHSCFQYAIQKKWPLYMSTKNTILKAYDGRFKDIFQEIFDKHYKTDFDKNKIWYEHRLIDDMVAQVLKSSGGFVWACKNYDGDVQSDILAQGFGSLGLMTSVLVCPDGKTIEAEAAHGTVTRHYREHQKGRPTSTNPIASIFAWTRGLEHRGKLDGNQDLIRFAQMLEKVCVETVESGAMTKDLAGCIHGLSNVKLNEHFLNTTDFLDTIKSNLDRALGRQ
Method: The inhibitory activity of the compounds of the present application against IDH2 (R172K, 40-end) was determined by using the following method, which was expressed as IC50 values, i.e., the concentrations of the compounds required to achieve 50% inhibition of IDH2 activity.
The inhibitory activity of a compound against IDH2 (R172K, 40-end) was determined by the decrease of a helper factor NADPH. The test compound was pre-incubated with an enzyme and NADPH, and then a reaction was initiated by the addition of α-KG, and performed for 120 minutes under a linear condition. Then, the reaction was terminated by the addition of diaphorase (lipoamide dehydrogenase) and the corresponding substrate resazurin. Diaphorase terminated the IDH2m reaction by decreasing the available helper factor NADPH, which oxidized NADPH to NADP, and reduced resazurin to highly fluorescent resorufin. The amount of remaining helper factor NADPH after a specific reaction time was quantified via an easily detectable fluorophore.
Specifically, 2.5 μl of a 3-fold gradient diluted test compound was added to a 384-well plate, and then 5 μl of a reaction buffer (20 mM Tris-HCl, PH7.5; 150 mM NaCl; 10 mM MgCl2; 10 mM MnCl2; 0.4 mg/ml BSA and 2 mM DTT) containing 80 nM IDH2 (R172K, 40-end) and 40 μM NADPH was added. Then, the resulting test mixture was incubated for 120 minutes at a temperature of 23° C., and then 2.5 μl of the reaction buffer containing 4 mM α-KG was added to initiate the reaction. After incubating for 120 minutes at room temperature, 5 μl of a termination mixture (0.4 U/ml diaphorase and 40 μM resazurin) prepared with the reaction buffer was added to convert resazurin to resorufin to determine the remaining NADPH. After incubating for 10 minutes at a temperature of 23° C., a fluorescence value was determined through Flexstation 3 at Ex535/Em595.

[2] = rats, same dose (5 mg/kg intragastric)

AUC(0-inf) [1]: 5.38 µg·h/mL
Cmax [1]: 0.479 µg/mL
Tmax [1]: 4 h
half-life [1]: 3.73 h
SMILES: CC(C)(O)CNc1nc(Nc2ccnc(C(F)(F)F)c2)nc(-c2cccc(C(F)(F)F)n2)n1 [AG-221, reference compound]

IC50 (IDH2 (R172K, 40-end)): 0.0224 µM
SMILES: CCONc1nc(Nc2ccnc(C(F)(F)F)c2)nc(-c2cccc(C(F)(F)F)n2)n1 [Example 1, 4-(ethoxyamino)-6-(6-(trifluoromethyl)pyridin-2-yl)-N-(2-(trifluoromethyl)pyridin-4-yl)-1,3,5-triazin-2-amine]

SMILES: CC(C)(C)ONc1nc(Nc2ccnc(C(F)(F)F)c2)nc(-c2cccc(C(F)(F)F)n2)n1 [Example 3, 4-(tert-butoxyamino)-6-(6-(trifluoromethyl)pyridin-2-yl)-N-(2-(trifluoromethyl)pyridin-4-yl)-1,3,5-triazin-2-amine]
IC50 (IDH2 (R172K, 40-end)): 0.0317 µM
AUC(0-inf) [1]: 10.8 µg·h/mL
Cmax [1]: 0.589 µg/mL
Tmax [1]: 5 h
half-life [1]: 12 h
half-life compared with AG-221 [1, 2]: longer half-life
metabolism in vivo compared with AG-221 [1, 2]: better metabolism in vivo
plasma concentration compared with AG-221 [1, 2]: higher plasma concentration

IC50 (IDH2 (R172K, 40-end)): 0.0382 µM
SMILES: FC(F)(F)c1cc(Nc2nc(NOCC3CC3)nc(-c3cccc(C(F)(F)F)n3)n2)ccn1 [Example 4, 4-((cyclopropylmethoxy)amino)-6-(6-(trifluoromethyl)pyridin-2-yl)-N-(2-(trifluoromethyl)pyridin-4-yl)-1,3,5-triazin-2-amine]

IC50 (IDH2 (R172K, 40-end)): 0.0469 µM
SMILES: CC(C)(O)CONc1nc(Nc2ccnc(C(F)(F)F)c2)nc(-c2cccc(C(F)(F)F)n2)n1 [Example 6, 2-methyl-1-(((4-(6-(trifluoromethyl)pyridin-2-yl)-6-((2-(trifluoromethyl)pyridin-4-yl)amino)-1,3,5-triazin-2-yl)amino)oxy)propan-2-ol]

IC50 (IDH2 (R172K, 40-end)): 0.154 µM
SMILES: CC(C)(CO)ONc1nc(Nc2ccnc(C(F)(F)F)c2)nc(-c2cccc(C(F)(F)F)n2)n1 [Example 7, 2-methyl-2-(((4-(6-(trifluoromethyl)pyridin-2-yl)-6-((2-(trifluoromethyl)pyridin-4-yl)amino)-1,3,5-triazin-2-yl)amino)oxy)propan-1-ol]

IC50 (IDH2 (R172K, 40-end)): 0.239 µM
SMILES: FC(F)(F)c1cc(Nc2nc(NOCc3ccccc3)nc(-c3cccc(C(F)(F)F)n3)n2)ccn1 [Example 8, 4-((benzyloxy)amino)-6-(6-(trifluoromethyl)pyridin-2-yl)-N-(2-(trifluoromethyl)pyridin-4-yl)-1,3,5-triazin-2-amine]

SMILES: CC(C)(C)ONc1nc(Nc2ccnc(C(F)(F)F)c2)nc(-c2ccccc2)n1 [Example 10, 4-(tert-butoxyamino)-6-phenyl-N-(2-(trifluoromethyl)pyridin-4-yl)-1,3,5-triazin-2-amine]
IC50 (IDH2 (R172K, 40-end)): 0.0514 µM
